Reference: ChEMBL document CHEMBL1201862, “PubChem BioAssay data set” (2004)
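Interpolation was linear, between the two tested concentrations surrounding the appropriate level; five concentrations were tested over 48 hours in 96-well plates. GI50 is the concentration that inhibits growth by half.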 Calls of active or inactive are those of the source. No stated cut-off is given here; in the data, active = GI50 up to about 1.1 µM and inactive = higher.

What was measured:
Assay in all cases: NCI-60 cell line screen, 48 h
UACC-257 = system: UACC-257
SK-OV-3 = system: SK-OV-3
SF-539 = system: SF-539
786-0 = system: 786-0
NCI-H23 = system: NCI-H23
SN12C = system: SN12C
CCRF-CEM = system: CCRF-CEM
NCI-H226 = system: NCI-H226
MCF7 = system: MCF7
SW-620 = system: SW-620
SF-295 = system: SF-295
HCC 2998 = system: HCC 2998
LOX IMVI = system: LOX IMVI
HOP-62 = system: HOP-62
OVCAR-8 = system: OVCAR-8
SNB-75 = system: SNB-75
KM12 = system: KM12
MOLT-4 = system: MOLT-4
PC-3 = system: PC-3
HL-60 = system: HL-60

Measured: GI50

CCCCCCC(C)CC(CCCCCC)NCCOC(=O)c1ccc([N+](=O)[O-])cc1 (configuration not stated)
inactive: UACC-257 4.98 µM | SK-OV-3 14.9 µM | SF-539 13 µM | 786-0 12.6 µM | NCI-H23 14.6 µM | SN12C 10.7 µM | CCRF-CEM 4.52 µM | NCI-H226 13.9 µM | MCF7 7.16 µM | SW-620 12.8 µM | SF-295 15.2 µM | HCC 2998 2.02 µM | LOX IMVI 4.12 µM | HOP-62 14.3 µM | OVCAR-8 5.66 µM | SNB-75 16 µM | KM12 10.1 µM

COc1ccc(C2CC(c3c(O)ccc4ccccc34)=NN2C(C)=O)cc1OC (configuration not stated)
inactive: UACC-257 34.8 µM | MOLT-4 19.3 µM | SK-OV-3 57.8 µM | SF-539 18.7 µM | 786-0 33.3 µM | NCI-H23 23.4 µM | SN12C 26.5 µM | CCRF-CEM 12.6 µM | NCI-H226 36.2 µM | MCF7 23.7 µM | SW-620 32.9 µM | SF-295 37.4 µM | HCC 2998 23.7 µM | HOP-62 26.9 µM | OVCAR-8 34.4 µM | PC-3 23.6 µM | SNB-75 19.8 µM | KM12 34.2 µM

C[C@H](C/C=C/C(C)(C)O)[C@H]1CC[C@@]2(C)[C@@H]3CC[C@H]4C(C)(C)[C@@H](O)CC[C@@]45C[C@@]35CC[C@]12C
inactive: UACC-257 17.9 µM | MOLT-4 9.91 µM | SK-OV-3 32.1 µM | SF-539 16.8 µM | 786-0 20.9 µM | SN12C 13 µM | NCI-H226 17.1 µM | MCF7 35.2 µM | SW-620 18.4 µM | SF-295 16.6 µM | LOX IMVI 11.7 µM | HOP-62 13.6 µM | OVCAR-8 14.8 µM | PC-3 26.3 µM | SNB-75 20.3 µM | KM12 24.7 µM

COc1cc(C2SC(=N)Nc3c2c(C)nn3C(=O)c2ccccc2O)cc(OC)c1OC (configuration not stated)
inactive: UACC-257 > 10 µM | MOLT-4 4 µM | SK-OV-3 1.66 µM | SF-539 4.42 µM | 786-0 9.14 µM | NCI-H23 8.3 µM | SN12C 9.18 µM | CCRF-CEM 3.85 µM | NCI-H226 > 10 µM | MCF7 > 10 µM | SW-620 > 10 µM | SF-295 3.51 µM | LOX IMVI 5.16 µM | HOP-62 6.15 µM | OVCAR-8 > 10 µM | PC-3 5.48 µM | SNB-75 1.87 µM | KM12 8.3 µM

C/C=C(C)/C=C/CC(C)CCC=C(C)C (configuration not stated)
inactive: UACC-257 > 100 µM | MOLT-4 > 100 µM | SK-OV-3 > 100 µM | SF-539 > 100 µM | 786-0 > 100 µM | HL-60 44.5 µM | SN12C > 100 µM | CCRF-CEM > 100 µM | NCI-H226 > 100 µM | MCF7 > 100 µM | SW-620 > 100 µM | SF-295 > 100 µM | LOX IMVI > 100 µM | OVCAR-8 > 100 µM | SNB-75 > 100 µM | KM12 > 100 µM

CSc1nnc(CCC(=O)Nc2c(C)cccc2C)o1
inactive: UACC-257 > 100 µM | MOLT-4 > 100 µM | SK-OV-3 > 100 µM | SF-539 > 100 µM | 786-0 > 100 µM | HL-60 > 100 µM | NCI-H23 > 100 µM | SN12C > 100 µM | CCRF-CEM > 100 µM | NCI-H226 > 100 µM | SW-620 > 100 µM | SF-295 > 100 µM | HCC 2998 > 100 µM | LOX IMVI > 100 µM | HOP-62 > 100 µM | OVCAR-8 > 100 µM | SNB-75 91.6 µM | KM12 > 100 µM

CC1(C)Oc2ccc3c(=O)c(-c4ccccc4)c(-c4ccccc4)oc3c2C1C(=O)O (configuration not stated)
inactive: UACC-257 > 100 µM | MOLT-4 48.3 µM | SK-OV-3 > 100 µM | SF-539 > 100 µM | 786-0 > 100 µM | NCI-H23 > 100 µM | SN12C > 100 µM | CCRF-CEM > 100 µM | NCI-H226 > 100 µM | MCF7 > 100 µM | SF-295 > 100 µM | HCC 2998 > 100 µM | HOP-62 > 100 µM | OVCAR-8 > 100 µM | PC-3 > 100 µM

CN(C(=O)Cc1ccccc1)n1cnn(CC(=O)OC(C)(C)C)c1=S
inactive: UACC-257 > 10 µM | MOLT-4 > 10 µM | SK-OV-3 > 10 µM | SF-539 > 10 µM | 786-0 > 10 µM | NCI-H23 > 10 µM | SN12C > 10 µM | CCRF-CEM > 10 µM | MCF7 > 10 µM | SW-620 > 10 µM | SF-295 > 10 µM | HCC 2998 > 10 µM | LOX IMVI > 10 µM | HOP-62 > 10 µM | OVCAR-8 > 10 µM | PC-3 > 10 µM | SNB-75 > 10 µM | KM12 > 10 µM

Cc1n[nH]c(=O)n1N1C(=O)CCCC1=O
inactive: UACC-257 > 100 µM | MOLT-4 22.6 µM | SK-OV-3 > 100 µM | SF-539 > 100 µM | 786-0 > 100 µM | NCI-H23 > 100 µM | SN12C > 100 µM | CCRF-CEM > 100 µM | NCI-H226 > 100 µM | MCF7 > 100 µM | SF-295 > 100 µM | HCC 2998 > 100 µM | HOP-62 > 100 µM | OVCAR-8 > 100 µM | PC-3 > 100 µM | SNB-75 > 100 µM

COc1ccc2c(c1O)C13CCN(C)C(C2)C1CCC1(C3)OCCO1 (configuration not stated)
inactive: UACC-257 > 100 µM | MOLT-4 > 100 µM | SK-OV-3 > 100 µM | 786-0 > 100 µM | NCI-H23 > 100 µM | SN12C > 100 µM | NCI-H226 > 100 µM | MCF7 > 100 µM | SW-620 > 100 µM | SF-295 > 100 µM | HCC 2998 > 100 µM | LOX IMVI > 100 µM | HOP-62 > 100 µM | OVCAR-8 > 100 µM | PC-3 > 100 µM | SNB-75 > 100 µM | KM12 > 100 µM

c1cncc(CNc2ncn[nH]2)c1
inactive: UACC-257 > 100 µM | MOLT-4 > 100 µM | SK-OV-3 > 100 µM | SF-539 > 100 µM | 786-0 > 100 µM | NCI-H23 > 100 µM | SN12C > 100 µM | NCI-H226 > 100 µM | MCF7 > 100 µM | SW-620 > 100 µM | SF-295 > 100 µM | LOX IMVI > 100 µM | HOP-62 > 100 µM | OVCAR-8 > 100 µM | PC-3 > 100 µM | SNB-75 > 100 µM | KM12 > 100 µM

Cc1cc(Cl)ccc1NC(=O)C(=O)C(C(=O)c1ccccc1)C1OC(=O)c2ccccc21 (configuration not stated)
inactive: UACC-257 > 100 µM | MOLT-4 > 100 µM | SK-OV-3 > 100 µM | SF-539 > 100 µM | 786-0 > 100 µM | HL-60 > 100 µM | NCI-H23 > 100 µM | SN12C > 100 µM | CCRF-CEM > 100 µM | NCI-H226 > 100 µM | SW-620 > 100 µM | SF-295 > 100 µM | HCC 2998 > 100 µM | LOX IMVI > 100 µM | HOP-62 > 100 µM | OVCAR-8 > 100 µM | SNB-75 > 100 µM | KM12 > 100 µM

c1ccc2sc(C3(N4CCCC4)CCCCCC3)cc2c1
inactive: UACC-257 16 µM | MOLT-4 12.5 µM | SK-OV-3 16.8 µM | SF-539 19.6 µM | 786-0 14.1 µM | HL-60 17.4 µM | NCI-H23 18 µM | SN12C 15.3 µM | CCRF-CEM 10.7 µM | NCI-H226 21.3 µM | MCF7 18.4 µM | SW-620 16.9 µM | SF-295 15 µM | HCC 2998 13.6 µM | LOX IMVI 14.7 µM | HOP-62 18.5 µM | OVCAR-8 17.9 µM | SNB-75 13.5 µM | KM12 12.9 µM

N#C/C(=C\c1ccc(O)cc1O)C(N)=O
inactive: UACC-257 51.1 µM | MOLT-4 58.6 µM | SK-OV-3 45.6 µM | SF-539 > 100 µM | 786-0 > 100 µM | HL-60 53.6 µM | NCI-H23 58.1 µM | SN12C > 100 µM | CCRF-CEM > 100 µM | NCI-H226 41.6 µM | SW-620 > 100 µM | SF-295 > 100 µM | HCC 2998 > 100 µM | LOX IMVI > 100 µM | HOP-62 > 100 µM | OVCAR-8 > 100 µM | SNB-75 16.7 µM | KM12 > 100 µM

Oc1ccc2ccccc2c1/C=N/Cc1c(O)ccc2ccccc12
inactive: UACC-257 81.5 µM | MOLT-4 13.2 µM | SK-OV-3 > 100 µM | SF-539 31.6 µM | 786-0 47.2 µM | NCI-H23 42.7 µM | SN12C 32.8 µM | CCRF-CEM 6.25 µM | MCF7 48.2 µM | SW-620 52.4 µM | SF-295 39.5 µM | HCC 2998 42.2 µM | LOX IMVI 48.1 µM | HOP-62 > 100 µM | OVCAR-8 34.5 µM | PC-3 38.7 µM | SNB-75 37.9 µM | KM12 55.2 µM

Cn1c(-c2cccs2)cc(-c2ccsc2)c1-c1ccsc1
inactive: UACC-257 > 100 µM | MOLT-4 > 100 µM | SK-OV-3 > 100 µM | SF-539 > 100 µM | 786-0 > 100 µM | NCI-H23 8.24 µM | SN12C > 100 µM | CCRF-CEM > 100 µM | NCI-H226 > 100 µM | MCF7 6.59 µM | SW-620 > 100 µM | SF-295 > 100 µM | HCC 2998 > 100 µM | HOP-62 > 100 µM | OVCAR-8 > 100 µM | PC-3 > 100 µM | SNB-75 > 100 µM | KM12 > 100 µM
